Data set [1] relates to tobacco leaf. The settings on record: cited from earlier work. An excerpt:
The assays on tobacco plants are often used to analyze the toxicity effects of AMPs [[29],[30],[49],[5 ...

The test system of data set [2] is Nicotiana tabacum cv. 'Havana' leaves. Description: AMP toxicity on tobacco leaves by syringe infiltration. It counts as in vivo. Particulars: AMP alone in PBS at assay concentration. The protocol: To assess the HR, the Psa reference CFBP7286 strain was used. CFBP7286 cells were more exposed to the AMPs (doses and periods of exposure) than those used on the flow cytometry and the CFUs analyzes; from individual effects of AMPs on the reference CFBP7286 strain, the HR was assessed. Tobacco plants (Nicotiana tabacum cv. ‘Havana’) were sown in plant pots of 1 L in peat substrate (Siro, Mira, Portugal). Plants were grown for 8 weeks in a growth chamber with a controlled temperature at 25 °C ± 2 and relative humidity at 50% ± 5. Psa infiltration on tobacco plants for HR was performed according to Stefani and Loreti using a syringe tip to inoculate 1 mL of bacterial suspension after 1 h of AMPs treatments in the abaxial side of the leaves. PBS was used as a negative control and Psa CFBP7286 at the same concentration and diluted in PBS for 1 h as the treatment was infiltrated as a positive control for HR. The AMPs at the assay concentration were prepared in PBS and infiltrated, also as a negative control of the treatment. The development of HR was monitored within 24 and 48 h post infiltration (hpi). Three tobacco plants, and three leaves of each plant, were used in three independent experiments.

Data set [3] deals with Psa strains. Description: Minimal inhibitory concentration (MIC), microplate growth in MHB. Format: cell-based, Pseudomonas syringae pv. actinidiae. As to the method:
(§1) All strains were obtained from stocks preserved at –80 °C and cultured in King’s B medium (protease peptone, 20.0 g; anhydrous K2HPO4, 1.5 g; glycerol, 10.0 mL; MgSO4·7H2O, 1.5 g; agar, […]; distilled water up to 1.0 L). Individual colonies of each strain were selected and re-streaked two times to ensure purity. Psa strains were isolated in different infected kiwifruit orchards between 2013 and 2017. CFBP7286 was used as Psa biovar 3 reference strain. For the antibiogram assays, pure colonies of all bacterial strains were grown overnight in Muller-Hinton Broth (MHB; Oxoid), at 28 °C and 240 rpm. Bacterial growth was monitored and adjusted to 0.135 optical density at 600 nm (OD600) in a spectrophotometer (Genesys 10uv Scanning, Thermo Scientific). […] For flow cytometry experiments, bacteria were cultured in King’s B broth medium for 20 h, at 25 °C in a shaking incubator at 200 rpm.
(§2) The MIC and MBC were determined for peptides discriminated by the antibiograms as the most efficient, i.e., RW-BP100, CA-M, 3.1, and BP100. […] In this assay, additional concentrations to those used in the antibiogram analysis were included in order to obtain more accurate results. Sterile 96-well microplates were filled with 150 µL of peptide and bacterial solution in a 1:1 ratio, leading to final concentrations of peptides equal to 0.25, 0.75, 1.6, 3.4, 6.2, 10, 25, 50, and 100 µM. As negative control a bacterial-free solution and sterile distilled water was used, and positive control with chlortetracycline to a final concentration of 25 µM was used. Microplates were incubated at 25 °C and 130 rpm and OD600 was measured hourly for 24 h, with 30 s vigorous shaking before each reading. The experiment was repeated three distinct times with different fresh bacterial colonies.
(§3) Data from bacterial growth curves were analyzed to determine IC50 values with two-way ANOVA and Tukey tests (p < 0.05). MIC values were set as the peptide lowest concentrations that reduced bacterial growth.

In data set [4] the test system is Psa strains. Kind of data set: IC50 from bacterial growth curves. It counts as cell-based, Pseudomonas syringae pv. actinidiae. The settings on record: based on bacterial growth curves, read-out: half-maximal inhibitory concentration (IC50). As to the method:
as §2, §3

Data set [5] has as its system Psa strains. Description: Minimal bactericidal concentration (MBC), subculture on peptide-free King's B agar. Format: cell-based, Pseudomonas syringae pv. actinidiae. As to the method: as §1, §2, §3
The test system of data set [6] is Psa CFBP7286. It counts as cell-based. The settings on record: 1 h treatment; alone or combined with 3.1 at equal concentrations. As to the method: The number of viable bacteria cells of CFBP7286 strains was determined by CFU counting, using bacteria inocula exposed to the same AMPs (doses and periods of exposure) than those used on the flow cytometry assays. In the individual evaluation of BP100, CA-M, and 3.1 AMPs as well as the mixtures BP100:3.1 and CA-M:3.1, CFUs were determined by the drop method in the plate. All treated samples and controls were subjected to 10 serial ^1/10 dilutions in sterile PBS and 10 μL of each dilution was cultured on King’s B agar (1.5%) plates, with further incubation at 25 °C for 24 h. After the incubation time, plates were recorded in a GelDoc (BioRad) and colonies were counted for the last dilution with bacterial growth. This experiment was performed in three biological and temporal replicates.

Data set [7] deals with Pseudomonas syringae pv. actinidiae (Psa) strains. Description: Antibiogram assay (peptide drop on inoculated MH agar). Details: key: “ns” means the strain was not susceptible to the peptide in the tested concentration range. The settings on record: 1 µL drop on MH agar, 25 °C, 24 h, tested 0.4-200 µM. It counts as cell-based. As to the method:
All strains were obtained from stocks preserved at –80 °C and cultured in King’s B medium (protease peptone, 20.0 g; anhydrous K2HPO4, 1.5 g; glycerol, 10.0 mL; MgSO4·7H2O, 1.5 g; agar, […]; distilled water up to 1.0 L). Individual colonies of each strain were selected and re-streaked two times to ensure purity. Psa strains were isolated in different infected kiwifruit orchards between 2013 and 2017. CFBP7286 was used as Psa biovar 3 reference strain. For the antibiogram assays, pure colonies of all bacterial strains were grown overnight in Muller-Hinton Broth (MHB; Oxoid), at 28 °C and 240 rpm. Bacterial growth was monitored and adjusted to 0.135 optical density at 600 nm (OD600) in a spectrophotometer (Genesys 10uv Scanning, Thermo Scientific). […]
All six AMPs, BP100, RW-BP100, CA-M, D4E1, 3.1, and Dhvar-5 (Table 3), were evaluated by antibiogram assays to determine the most promising peptides against the selected bacterial strains. […]
For the pre-incubation, bacterial cultures were inoculated in Muller-Hinton (MH; Oxoid) agar (1.5%) medium by spreading 1 mL of each culture, removing the excess after 1 min and allowing drying for 15 min. […] After the incubation period, plate images were acquired on Gel Doc (BioRad, Hercules, CA, USA) and AMP activity was determined by no growth on drop site for each concentration. […]

The mark [8] stands for this setting: reference strain CFBP7286, MHB, 96-well, 25 °C, 130 rpm, OD600 hourly for 24 h, repeated three times.
Where [9] appears, read: strain AL114b, MHB, 96-well, 25 °C, 130 rpm, OD600 hourly for 24 h, repeated three times.
Setting [10] is: strain AL115, MHB, 96-well, 25 °C, 130 rpm, OD600 hourly for 24 h, repeated three times.
Where [11] appears, read: strain Fv62, MHB, 96-well, 25 °C, 130 rpm, OD600 hourly for 24 h, repeated three times.
Where [12] appears, read: strain P85, MHB, 96-well, 25 °C, 130 rpm, OD600 hourly for 24 h, repeated three times.
Where [13] appears, read: strain VN29, MHB, 96-well, 25 °C, 130 rpm, OD600 hourly for 24 h, repeated three times.
[14] abbreviates: strain VV10, MHB, 96-well, 25 °C, 130 rpm, OD600 hourly for 24 h, repeated three times.
Where [15] appears, read: strain VV112, MHB, 96-well, 25 °C, 130 rpm, OD600 hourly for 24 h, repeated three times.
[16] abbreviates: all strains (for CA-M except P85 and VN29), repeated three times.
Setting [17] is: reference strain CFBP7286, subculture on peptide-free King's B agar, 25 °C, 24 h.
The mark [18] stands for this setting: strain AL114b, subculture on peptide-free King's B agar, 25 °C, 24 h.
[19] abbreviates: strain AL115, subculture on peptide-free King's B agar, 25 °C, 24 h.
Where [20] appears, read: strain Fv62, subculture on peptide-free King's B agar, 25 °C, 24 h.
[21] abbreviates: strain P85, subculture on peptide-free King's B agar, 25 °C, 24 h.
Setting [22] is: strain VN29, subculture on peptide-free King's B agar, 25 °C, 24 h.
[23] abbreviates: strain VV10, subculture on peptide-free King's B agar, 25 °C, 24 h.
[24] abbreviates: strain VV112, subculture on peptide-free King's B agar, 25 °C, 24 h.
Where [25] appears, read: summary over the eight Psa strains (abstract).

≈ marks a conversion by molar mass, not a printed value. Where two headings read alike, the source gives them in different places. No end group written: not given here.

Regarding `CC[C@H](C)[C@H](NC(=O)[C@H](CCCCN)NC(=O)[C@H](CCCCN)NC(=O)[C@H](Cc1ccccc1)NC(=O)[C@H](CC(C)C)NC(=O)[C@H](CCCCN)NC(=O)[C@@H](N)CCCCN)C(=O)N[C@@H](CC(C)C)C(=O)N[C@@H](CCCCN)C(=O)N[C@@H](Cc1ccc(O)cc1)C(=O)N[C@@H](CC(C)C)C(N)=O` [BP100, reference compound], the tobacco leaf lesions in data set [1] (at 50 µM) was 4 mm; in data set [1] (at 250 µM), 12.5 mm. For the same compound, the “AMP toxicity on tobacco plants” value in data set [2] is recorded as “absence/low toxicity”. Also, the MIC in data set [3] (setting [8]), in data set [3] (setting [9]), in data set [3] (setting [10]), in data set [3] (setting [11]), in data set [3] (setting [12]) and in data set [3] (setting [13]) was 3.4 µM (≈ 4.83 µg/mL) each time. Further, the minimal inhibitory concentration (MIC) in data set [3] (setting [14]) and in data set [3] (setting [15]) was 3.4 µM (≈ 4.83 µg/mL) in each case. In data set [4] (setting [16]), the IC50 was approximately 2 µM. The MBC – broadly, the smallest concentration meeting the test's criterion for killing – is 3.4 µM (≈ 4.83 µg/mL) in data set [5] (setting [17]); 3.4 µM (≈ 4.83 µg/mL) in data set [5] (setting [18]); 3.4 µM (≈ 4.83 µg/mL) in data set [5] (setting [19]); 10 µM (≈ 14.2 µg/mL) in data set [5] (setting [20]); 6.2 µM (≈ 8.81 µg/mL) in data set [5] (setting [21]); 6.2 µM (≈ 8.81 µg/mL) in data set [5] (setting [22]). Moreover, the MBC in data set [5] (setting [23]) was 6.2 µM (≈ 8.81 µg/mL); in data set [5] (setting [24]), 10 µM (≈ 14.2 µg/mL); in data set [5] (setting [25]), 3.4 to 10 µM. In data set [6], the “lethal concentration of BP100 by CFUs” value is listed as 2 µM.

As for KKLLKWLLKLL-NH2 [3.1], the “AMP toxicity on tobacco plants” value in data set [2] is “absence/low toxicity”. For the same compound, the MIC (commonly the smallest concentration in the dilution series that meets the test's criterion for growth inhibition) in data set [3] (setting [8]) came out at 10 µM; in data set [3] (setting [9]), 25 µM; in data set [3] (setting [10]), 10 µM; in data set [3] (setting [11]), 10 µM; in data set [3] (setting [12]) it was 25 µM; in data set [3] (setting [13]), 10 µM. The MIC in data set [3] (setting [14]) and in data set [3] (setting [15]) was 10 µM each time. Moreover, the minimal bactericidal concentration (MBC) in data set [5] (setting [17]) was 25 µM; in data set [5] (setting [18]) it was 25 µM; in data set [5] (setting [19]), 10 µM; in data set [5] (setting [20]), 25 µM; in data set [5] (setting [21]), 25 µM; in data set [5] (setting [22]) it was 25 µM. In addition, the minimum bactericidal concentration (MBC) in data set [5] (setting [23]) and in data set [5] (setting [24]) was 25 µM in each case.

With KWKLFKKIGAVLKVL-NH2 [CA-M], the “AMP toxicity on tobacco plants” value in data set [2] is on record as “absence/low toxicity”. The MIC in data set [3] (setting [8]) is recorded as 3.4 µM; in data set [3] (setting [9]) it was 3.4 µM; in data set [3] (setting [10]) it was 3.4 µM; in data set [3] (setting [11]), 3.4 µM; in data set [3] (setting [12]), 6.2 µM; in data set [3] (setting [13]), 6.2 µM. The values for the MIC in data set [3] (setting [14]), in data set [3] (setting [15]) and in data set [3] (setting [25]) were 3.4 µM, 3.4 µM and 3.4 to 6.2 µM, respectively. In addition, the IC50 in data set [4] (setting [16]) was approximately 2 µM; in data set [4] (strain P85), approximately 4 µM; in data set [4] (strain VN29), approximately 4 µM. The MBC came to 6.2 µM in data set [5] (setting [17]); 10 µM in data set [5] (setting [18]); 6.2 µM in data set [5] (setting [19]); 10 µM in data set [5] (setting [20]); 6.2 µM in data set [5] (setting [21]); 6.2 µM in data set [5] (setting [22]). Moreover, the values for the MBC in data set [5] (setting [23]), in data set [5] (setting [24]) and in data set [5] (setting [25]) were 6.2 µM, 6.2 µM and 3.4 to 10 µM, respectively.

In the case of LLLFLLKKRKKRKY-NH2 [Dhvar-5], the antibiogram inhibitory concentration result in data set [7] (strain VC104b) and in data set [7] (strain VN29) was “ns” throughout.

Take RRLFRRILRWL-NH2 [RW-BP100]: the minimum inhibitory concentration (MIC) in data set [3] (setting [8]) amounted to 3.4 µM; in data set [3] (setting [9]), 6.2 µM; in data set [3] (setting [10]) it was 6.2 µM; in data set [3] (setting [11]), 6.2 µM; in data set [3] (setting [12]), 6.2 µM; in data set [3] (setting [13]), 6.2 µM. Besides, the MIC in data set [3] (setting [14]) and in data set [3] (setting [15]) was 6.2 µM throughout. The MBC in data set [5] (setting [17]), in data set [5] (setting [18]), in data set [5] (setting [19]), in data set [5] (setting [20]), in data set [5] (setting [21]) and in data set [5] (setting [22]) was 6.2 µM in each case. Also, the minimum bactericidal concentration (MBC) in data set [5] (setting [23]) and in data set [5] (setting [24]) was 6.2 µM in each case.

The values are drawn from article PMC7962642, “A Synergic Potential of Antimicrobial Peptides against Pseudomonas syringae pv. actinidiae” (Molecules, 2021).
